In US5214174A, “Platinum complex and anti-tumor agent comprising said complex as active ingredient” (Tsumura & Co., priority 1989, dated 1993):

Assays:
[1] = test system: Hela human uterine neck cancer cells; experiment: Inhibition of propagation of cancer cells, MTT method, 48 hours; assay type: cell-based; settings: 37° C.
Description: (§1) L1210 mouse leukemia cells, P388 mouse leukemia cells, Hela human uterine neck cancer cells, T24 human bladder cancer cells or MCF7 human mammary cancer cells were suspended in Eagle medium (Hela and T24) containing 10% bovine fetal serum, PRMI1640 medium (L1210 and MCF7) or PRM11740 medium (P388) mixed with 5×10^-5 M mercaptoethanol, and the cells were seeded on a 96-well plate at an inoculum size of 3×10^3 cells per hole. A compound obtained in an example described below or cysplatin (CDDP) was diluted with physiological saline solution and added to the medium at various concentrations. Culturing was conducted at 37° C. for 48 hours in a carbon dioxide incubator, and the propagation of cells was determined by the MTT [3-(4,5-dimethylthiazol-2-yl-)-2,5-diphenyl tetrazolium bromide] method (J. Immunol. Method, 65, 55, 1983). The absorbance A after 48 hours of culturing at each concentration, the absorbance B after 48 hours of culturing in the control, and the absorbance C before addition of the compound obtained in the example were determined, and the propagation reaction rate D of each concentration was calculated from the following formula: [formula] The concentration IC50, unit: μg/ml) of the compound obtained in the example giving the value corresponding to 50% of the value of the control was determined from the curve showing the relationship between the concentration of the compound obtained in the example and the propagation reaction rate.

[2] = test system: L1210 mouse leukemia cells; experiment: as above; assay type: cell-based; settings: 37° C.
Description: as §1

[3] = test system: MCF7 human mammary cancer cells; experiment: as above; assay type: cell-based; settings: 37° C.
Description: as §1

[4] = test system: P388 mouse leukemia cells; experiment: as above; assay type: cell-based; settings: 37° C.
Description: as §1

[5] = test system: T24 human bladder cancer cells; experiment: as above; assay type: cell-based; settings: 37° C.
Description: as §1

[6] = test system: Mouse leukemia L1210 cells; experiment: Anti-tumor effect (life prolongation) in mice transplanted with L1210 cells; assay type: in vivo, mouse (female BDF1); settings: abdominal cavity; for T/C (life prolongation ratio) / ratio of the number of surviving mice to the number of tested mice / Average Survival Day Number / ILS30 (dose giving a 30% life-prolonging effect over the control group) / ILSmax (dose giving a highest life-prolonging effect) / TR (cure ratio; ILSmax/ILS30): once a day for 3 days; for ratio of the number of surviving mice to the number of tested mice: 30th day; for Average Survival Day Number: 30 days
Description: Mouse leukemia L1210 cells (1×10^5) were transplanted into the abdominal cavity of a 6-weeks-old female BDF1 mouse. Then, continuously for 3 days from the next day, a compound of a compound obtained in an example described below or CDDP was administered to the abdominal cavity once a day. In the control group, physiological saline solution alone was similarly administered.
The anti-tumor effect was evaluated based on the life prolongation ratio (T/C value) determined from the average survival day numbers of the group of the compound obtained in the example and the control group after 30 days from the transplantation of L1210. On the 30th day from the transplantation, the experiment was concluded. In the case of mice surviving for more than 30 days, the survival day number was regarded as 30. [formula] The average survival day number at each dose, the T/C value (%) and the ratio of the number of surviving mice upon termination of the experiment to the number of tested mice are shown in Table 2. The ILS30 value (the dose giving a 30% life-prolonging effect over the control group), the ILSmax value (the dose giving a highest life-prolonging effect), the TR value (cure ratio; ILSmax /ILS30) and the CR value (the ratio of the number of mice completely cured at the ILSmax value and the number of mice showing no propagation of a tumor after 30 days from the transplantation to the number of tested mice) are shown in Table 3.
Note, 1 indicates the ratio of the number of surviving mice to the number of tested mice.

[7] = Acute toxicity test; assay type: in vivo, mouse (male, ICR family); settings: administration into the abdominal cavity, male ICR mice

Row | Molecule | IC50 [1] [µg/mL] | IC50 [2] [µg/mL] | IC50 [3] [µg/mL] | IC50 [4] [µg/mL] | IC50 [5] [µg/mL] | ILS30 (dose giving a 30% life-prolonging effect over the control group) [6] [mg/kg] | ILSmax (dose giving a highest life-prolonging effect) [6] [mg/kg] | TR (cure ratio; ILSmax/ILS30) [6] | CR (ratio of mice completely cured at ILSmax and showing no propagation of a tumor after 30 days to tested mice) [6] | further results
1 | 1:1 mixture of oxalate-(1R,2R)-diaminocyclooctane platinum (II) and oxalate-(1S,2S)-diaminocyclooctane platinum (II) [Example 1] | 0.29 | 0.03 | 0.41 | 0.06 | 1.43 | 0.06 | 10.0 | 167 | 6/6 | T/C (life prolongation ratio) ([6]; 0.3 mg/kg): > 183%; ratio of the number of surviving mice to the number of tested mice ([6]; 0.3 mg/kg): 1/6; Average Survival Day Number ([6]; 0.3 mg/kg): > 16.8 days; T/C (life prolongation ratio) ([6]; 1.0 mg/kg): > 214%; ratio of the number of surviving mice to the number of tested mice ([6]; 1.0 mg/kg): 1/6; Average Survival Day Number ([6]; 1.0 mg/kg): > 19.7 days; T/C (life prolongation ratio) ([6]; 3.0 mg/kg): > 220%; ratio of the number of surviving mice to the number of tested mice ([6]; 3.0 mg/kg): 2/6; Average Survival Day Number ([6]; 3.0 mg/kg): > 20.3 days; T/C (life prolongation ratio) ([6]; 10.0 mg/kg): > 326%; ratio of the number of surviving mice to the number of tested mice ([6]; 10.0 mg/kg): 6/6; Average Survival Day Number ([6]; 10.0 mg/kg): > 30.0 days
2 | [NH2][Pt]([NH2])([Cl])[Cl] [CDDP, cisplatin, reference compound] | 1.42 | 0.46 | 3.28 | 0.09 | 1.51 | 1.5 | 6.0 | 4 | 3/6 | LD50 [7]: 14.6 mg/kg
